Measured values as given in PubChem BioAssay AID192 (DTP/NCI, 2004).
Where “and” joins values, the source holds several entries; their conditions need not be identical. Equal values may be shown once. Toxic doses and inconclusive results are not listed. Peptide text beside a SMILES is read from it.

Tested on: BDF1 mice, B16 melanoma ip, median survival T/C
Experiment: NCI In Vivo Anticancer Drug Screen. Data for tumor model B16 Melanoma (intraperitoneal) in B6D2F1 (BDF1) mice
Settings: endpoint: median survival time, higher = longer survival
In short: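 Each result divides a survival or tumor-size measurement in the compound-treated group by the same measurement in the vehicle group.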

[1] = dose: 12.5 mg/kg/injection, schedule: Q01DX009 (ip), vehicle: saline with Tween-80
[2] = dose: 25.0 mg/kg/injection, schedule: Q01DX009 (ip), vehicle: saline with Tween-80
[3] = dose: 50.0 mg/kg/injection, schedule: Q01DX009 (ip), vehicle: saline with Tween-80
[4] = dose: 100.0 mg/kg/injection, schedule: Q01DX009 (ip), vehicle: saline with Tween-80
[5] = dose: 200.0 mg/kg/injection, schedule: Q01DX009 (ip), vehicle: saline with Tween-80
[6] = dose: 400.0 mg/kg/injection, schedule: Q01DX009 (ip), vehicle: saline with Tween-80
[7] = dose: 1.56 mg/kg/injection, schedule: Q01DX009 (ip), vehicle: saline
[8] = dose: 3.12 mg/kg/injection, schedule: Q01DX009 (ip), vehicle: saline
[9] = dose: 100.0 mg/kg/injection, schedule: Q01DX009 (ip), vehicle: Klucel (hydroxypropylcellulose) (HPC)
[10] = dose: 200.0 mg/kg/injection, schedule: Q01DX009 (ip), vehicle: Klucel (hydroxypropylcellulose) (HPC)
[11] = dose: 400.0 mg/kg/injection, schedule: Q01DX009 (ip), vehicle: Klucel (hydroxypropylcellulose) (HPC)
[12] = dose: 50.0 mg/kg/injection, schedule: Q01DX009 (ip), vehicle: Klucel (hydroxypropylcellulose) (HPC)
[13] = dose: 2.5 mg/kg/injection, schedule: Q01DX009 (ip), vehicle: saline with Tween-80
[14] = dose: 5.0 mg/kg/injection, schedule: Q01DX009 (ip), vehicle: saline with Tween-80

Which results are given for `O=S(=O)(O)C(O)c1cccnc1` (stereo not drawn)?
T/C [1]: 102 % of control; T/C [2]: 86 % of control; T/C [3]: 89 % of control

What does the source list for `OC(COc1ccccc1)CN1CCCCC1` (stereo not drawn)?
T/C [4]: 112 % of control; T/C [5]: 102 % of control; T/C [6]: 114 % of control

What does the source list for `CCc1ccc2c(c1)N(CC(C)CN(C)C)c1ccccc1S2` (stereo not drawn)?
T/C (dose: 0.78 mg/kg/injection, schedule: Q01DX009 (ip), vehicle: saline): 105 % of control; T/C [7]: 87 % of control and 111 % of control; T/C [8]: 98 % of control and 108 % of control

For `COc1ccc(Cl)cc1NC(=O)CC(C)=O`, which T/C [9] is on record?
Its T/C is 100 % of control.

And the T/C [10]?
The T/C was 93 % of control.

What about the T/C [11] of the same molecule?
Its T/C is 96 % of control.

With `CN1CCCCC1CCN1c2ccccc2Sc2ccc(Cl)cc21` (stereo not drawn) as the molecule, how does the T/C [7] read?
The T/C was 109 % of control.

What about the T/C [8] of the same molecule?
The T/C was 102 % of control.

What about the T/C (dose: 6.25 mg/kg/injection, schedule: Q01DX009 (ip), vehicle: saline) of the same molecule?
The T/C was 100 % of control.

And the T/C (dose: 12.5 mg/kg/injection, schedule: Q01DX009 (ip), vehicle: saline)?
The T/C was 103 % of control.

And the T/C (dose: 25.0 mg/kg/injection, schedule: Q01DX009 (ip), vehicle: saline)?
The T/C was 94 % of control.

How did the T/C (dose: 0.78 mg/kg/injection, schedule: Q01DX009 (ip), vehicle: saline with Tween-80) turn out when `COc1cc(OC)c(/C=C/c2c3ccccc3cc[n+]2C)c(OC)c1` was run?
Its T/C is 97 % of control.

And the T/C (dose: 1.56 mg/kg/injection, schedule: Q01DX009 (ip), vehicle: saline with Tween-80)?
The T/C was 102 % of control.

For `CCC(C)C(C(=O)OCCN(CC)CC)c1ccccc1` (stereo not drawn), which T/C (dose: 12.5 mg/kg/injection, schedule: Q01DX009 (ip), vehicle: Klucel (hydroxypropylcellulose) (HPC)) is on record?
Its T/C is 90 % of control.

What about the T/C (dose: 25.0 mg/kg/injection, schedule: Q01DX009 (ip), vehicle: Klucel (hydroxypropylcellulose) (HPC)) of the same molecule?
The T/C was 96 % of control.

What about the T/C [12] of the same molecule?
Its T/C is 90 % of control and 93 % of control.

Which T/C (dose: 25.0 mg/kg/injection, schedule: Q01DX009 (ip), vehicle: water) does the source give for `CC(C)C(NC(=O)C(NC(=O)C(CCCN=C(N)N)NC(=O)C(N)CCCCN)C(C)C)C(N)=O` (stereo not drawn) (H-KRVV-NH2; configuration not given here) here?
The T/C was 97 % of control.

What about the T/C (dose: 50.0 mg/kg/injection, schedule: Q01DX009 (ip), vehicle: water) of the same molecule?
Its T/C is 96 % of control.

And the T/C (dose: 100.0 mg/kg/injection, schedule: Q01DX009 (ip), vehicle: water)?
Its T/C is 96 % of control.

What about the T/C (dose: 200.0 mg/kg/injection, schedule: Q01DX009 (ip), vehicle: water) of the same molecule?
Its T/C is 99 % of control.

Which results are given for `CCCCN(C)/N=N/c1nc[nH]c1C(N)=O`?
T/C (dose: 10.0 mg/kg/injection, schedule: Q01DX009 (ip), vehicle: carboxymethylcellulose (CMC)): 111 % of control; T/C (dose: 20.0 mg/kg/injection, schedule: Q01DX009 (ip), vehicle: carboxymethylcellulose (CMC)): 120 % of control; T/C [2]: 109 % of control; T/C [3]: 112 % of control

Which T/C [12] does the source give for `CCN(CC)c1ccc(C=Nc2cccc(C(F)(F)F)c2)cc1` here?
Its T/C is 103 % of control.

What about the T/C [9] of the same molecule?
Its T/C is 96 % of control.

And the T/C [10]?
The T/C was 96 % of control.

For `CC(NC(=O)OC(C)(C)C)C(=O)ON1C(=O)CCC1=O` (stereo not drawn), which T/C [3] is on record?
The T/C was 102 % of control.

And the T/C [4]?
Its T/C is 92 % of control.

How did the T/C (dose: 3.75 mg/kg/injection, schedule: Q01DX009 (ip), vehicle: distilled water + alcohol) turn out when `COc1ccc2c(NCCCCCCCCNc3c4ccccc4nc4cc(OC)ccc34)c3ccccc3nc2c1` was run?
Its T/C is 95 % of control.

`CCCCCCCCCCCCCCOC(=O)Cl` was tested. Which T/C [12] did it give?
The T/C was 90 % of control.

What about the T/C [9] of the same molecule?
The T/C was 92 % of control.

And the T/C [10]?
The T/C was 96 % of control.

What about the T/C [11] of the same molecule?
Its T/C is 91 % of control.

For `CCCCCCCCC(=O)N(C)OC`, which T/C (dose: 3.13 mg/kg/injection, schedule: Q04DX003 (ip), vehicle: saline) is on record?
Its T/C is 107 % of control.

What about the T/C (dose: 6.25 mg/kg/injection, schedule: Q04DX003 (ip), vehicle: saline) of the same molecule?
Its T/C is 121 % of control.

And the T/C (dose: 12.5 mg/kg/injection, schedule: Q04DX003 (ip), vehicle: saline)?
The T/C was 105 % of control.

For `Nc1ncnc2c(C3OC(CO)C(O)C3O)[nH]nc12` (stereo not drawn), which T/C (dose: 1.0 mg/kg/injection, schedule: Q01DX009 (ip), vehicle: saline) is on record?
The T/C was 113 % of control.

What about the T/C (dose: 2.0 mg/kg/injection, schedule: Q01DX009 (ip), vehicle: saline) of the same molecule?
Its T/C is 122 % of control.

What about the T/C (dose: 4.0 mg/kg/injection, schedule: Q01DX009 (ip), vehicle: saline) of the same molecule?
Its T/C is 122 % of control.

And the T/C (dose: 8.0 mg/kg/injection, schedule: Q01DX009 (ip), vehicle: saline)?
Its T/C is 107 % of control.

Which results are given for `CC1=NCCc2c1cc1c([nH]c3ccccc31)c2C`?
T/C [1]: 105 % of control; T/C [2]: 110 % of control

What does the source list for `CCCNCCN(CC)CC`?
T/C [3]: 107 % of control; T/C [4]: 100 % of control; T/C [5]: 99 % of control

With `CC(C)CC(Br)C(=O)NC(CC(C)C)C(=O)O` (stereo not drawn) as the molecule, how does the T/C [2] read?
The T/C was 95 % of control.

And the T/C [3]?
The T/C was 100 % of control.

And the T/C [4]?
The T/C was 95 % of control and 100 % of control.

What about the T/C [6] of the same molecule?
Its T/C is 108 % of control.

With `CC(O)C(=O)[O][Hg][c]1ccccc1` (stereo not drawn) as the molecule, how does the T/C [13] read?
The T/C was 102 % of control.

What about the T/C [14] of the same molecule?
The T/C was 102 % of control.

Which T/C [13] does the source give for `CCCCCCCCCCCCCCCCCC(=O)NCNC(=O)CCCCCCCCCCCCCCCCC` here?
The T/C was 102 % of control.

And the T/C (dose: 4.68 mg/kg/injection, schedule: Q04DX003 (ip), vehicle: saline with Tween-80)?
Its T/C is 86 % of control.

And the T/C [14]?
Its T/C is 100 % of control.

And the T/C (dose: 9.37 mg/kg/injection, schedule: Q04DX003 (ip), vehicle: saline with Tween-80)?
The T/C was 97 % of control.

What about the T/C (dose: 10.0 mg/kg/injection, schedule: Q01DX009 (ip), vehicle: saline with Tween-80) of the same molecule?
The T/C was 87 % of control.

Which results are given for `Cc1cc(OC(=O)Nc2ccccc2Cl)ccc1[N+](=O)[O-]`?
T/C (dose: 100.0 mg/kg/injection, schedule: Q04DX003 (ip), vehicle: Klucel (hydroxypropylcellulose) (HPC)): 96 % of control; T/C (dose: 200.0 mg/kg/injection, schedule: Q04DX003 (ip), vehicle: Klucel (hydroxypropylcellulose) (HPC)): 96 % of control; T/C (dose: 400.0 mg/kg/injection, schedule: Q04DX003 (ip), vehicle: Klucel (hydroxypropylcellulose) (HPC)): 93 % of control

Which T/C (dose: 0.6 mg/kg/injection, schedule: Q01DX009 (ip), vehicle: gum acacia) does the source give for `CC[CH2][Sn]([Cl])([Cl])[CH2]CC.Oc1ccccc1C=NCCN=Cc1ccccc1O` here?
The T/C was 95 % of control.

What about the T/C (dose: 0.61 mg/kg/injection, schedule: Q01DX009 (ip), vehicle: gum acacia) of the same molecule?
Its T/C is 100 % of control.

And the T/C (dose: 1.25 mg/kg/injection, schedule: Q01DX009 (ip), vehicle: gum acacia)?
The T/C was 92 % of control and 100 % of control.

And the T/C (dose: 2.5 mg/kg/injection, schedule: Q01DX009 (ip), vehicle: gum acacia)?
The T/C was 92 % of control and 94 % of control.

What about the T/C (dose: 5.0 mg/kg/injection, schedule: Q01DX009 (ip), vehicle: gum acacia) of the same molecule?
The T/C was 90 % of control and 97 % of control.

Which results are given for `N#CCCN(CCC#N)c1ccc(C=O)cc1`?
T/C [9]: 104 % of control; T/C [10]: 98 % of control; T/C [11]: 102 % of control

For `O=C(Cc1ccc2cc3c(cc2c1)OCO3)NCCc1ccc2c(c1)OCO2`, which T/C [9] is on record?
The T/C was 105 % of control.

What about the T/C [10] of the same molecule?
The T/C was 94 % of control.

What about the T/C [11] of the same molecule?
The T/C was 91 % of control.

`CC1OC(O[C@H]2C[C@](O)(C(C)O)Cc3c(O)c4c(c(O)c32)C(=O)c2c(O)cccc2C4=O)CC(NC=O)C1O` (stereo partly drawn) was tested. Which T/C (dose: 2.0 micrograms/kg/injection, schedule: Q01DX009 (ip), vehicle: saline) did it give?
Its T/C is 154 % of control.

And the T/C (dose: 4.0 micrograms/kg/injection, schedule: Q01DX009 (ip), vehicle: saline)?
The T/C was 154 % of control.

What about the T/C (dose: 8.0 micrograms/kg/injection, schedule: Q01DX009 (ip), vehicle: saline) of the same molecule?
Its T/C is 192 % of control.

And the T/C (dose: 16.0 micrograms/kg/injection, schedule: Q01DX009 (ip), vehicle: saline)?
Its T/C is 249 % of control.

What about the T/C (dose: 32.0 micrograms/kg/injection, schedule: Q01DX009 (ip), vehicle: saline) of the same molecule?
The T/C was 195 % of control.

Which results are given for `Cc1cc(NS(=O)(=O)c2ccc(N=Nc3cc(N=Nc4ccc(S(=O)(=O)Nc5cc(C)nc(C)n5)cc4)c4c(NC(=O)C(Cl)Cl)cccc4c3OC(=O)C(Cl)Cl)cc2)nc(C)n1` (tested in a mixture with another compound)?
T/C (dose: 12.5 mg/kg/injection, schedule: Q01DX009 (ip), vehicle: suspension in saline): 98 % of control; T/C (dose: 25.0 mg/kg/injection, schedule: Q01DX009 (ip), vehicle: suspension in saline): 95 % of control; T/C (dose: 50.0 mg/kg/injection, schedule: Q01DX009 (ip), vehicle: suspension in saline): 97 % of control; T/C (dose: 100.0 mg/kg/injection, schedule: Q01DX009 (ip), vehicle: suspension in saline): 95 % of control; T/C (dose: 200.0 mg/kg/injection, schedule: Q01DX009 (ip), vehicle: suspension in saline): 93 % of control; T/C (dose: 400.0 mg/kg/injection, schedule: Q01DX009 (ip), vehicle: suspension in saline): 87 % of control
